Laboratory results from PubChem BioAssay (NCI).
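Following 48 hours of exposure in 96-well plates, responses at five concentrations were used to interpolate endpoints linearly. Abbreviation: GI50, concentration required for 50% inhibition of growth. At the TGI there is no net growth.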

Key:
Test in all cases: NCI anticancer screen, dose series, 48 h
[1] = system: ACHN renal
[2] = system: M14 melanoma
[3] = system: SF-268 CNS
[4] = system: SK-MEL-5 melanoma
[5] = system: SNB-19 CNS
[6] = system: TK-10 renal
[7] = system: U251 CNS
[8] = system: UACC-62 melanoma

Row | Compound | GI50 [1] | TGI [1] | GI50 [2] | TGI [2] | GI50 [3] | TGI [3] | GI50 [4] | TGI [4] | GI50 [5] | TGI [5] | GI50 [6] | TGI [6] | GI50 [7] | TGI [7] | GI50 [8] | TGI [8]
1 | CC(C)=O.O=C([O-])C(F)(F)F.O=C([O-])C(F)(F)F.O=C([O-])C(F)(F)F.O=C([O-])C(F)(F)F.[Rh+2].[Rh+2] | 50.5 µM | > 100 µM | > 100 µM | > 100 µM | > 100 µM | > 100 µM | > 100 µM | > 100 µM | 60.4 µM | > 100 µM | 81.4 µM | > 100 µM | 47.5 µM | > 100 µM | > 100 µM | > 100 µM
2 | CCO/C(CCn1[nH]c(=O)c(Cl)c(Cl)c1=O)=N\NC(=O)C(=O)NN | – | > 100 µM | – | > 100 µM | – | > 100 µM | – | > 100 µM | – | > 100 µM | – | > 100 µM | – | > 100 µM | – | > 100 µM
3 | O=S(=O)(c1ccccc1)c1nccs1 | – | > 100 µM | – | > 100 µM | – | > 100 µM | – | > 100 µM | – | > 100 µM | – | > 100 µM | – | > 100 µM | – | > 100 µM
4 | S=c1nc(C(c2ccccc2)c2ccccc2)[nH][nH]1 | – | > 100 µM | – | – | – | > 100 µM | – | > 100 µM | – | > 100 µM | – | > 100 µM | – | > 100 µM | – | > 100 µM
5 | O=C(N/C(=C\c1c(O)ccc2ccccc12)c1nc2ccccc2[nH]1)c1ccccc1 | – | > 100 µM | – | > 100 µM | – | > 100 µM | – | > 100 µM | – | > 100 µM | – | > 100 µM | – | > 100 µM | – | > 100 µM
6 | O=C(Nc1cc(Cl)ccc1Cl)c1cc2cccc(Br)c2oc1=O | – | > 100 µM | – | > 100 µM | – | – | – | > 100 µM | – | > 100 µM | – | > 100 µM | – | > 100 µM | – | > 100 µM
7 | O=c1/c(=C/c2c(O)ccc3ccccc23)sc2nc3ccccc3n12 | – | > 100 µM | – | > 100 µM | – | > 100 µM | – | > 100 µM | – | > 100 µM | – | > 100 µM | – | > 100 µM | – | > 100 µM
8 | CC1(C)OC2CC3COC(=O)C3CC2O1 (stereo not given) | – | > 100 µM | – | > 100 µM | – | > 100 µM | – | > 100 µM | – | – | – | > 100 µM | – | > 100 µM | – | > 100 µM
9 | CC(N)Cc1ccc(Cl)cc1 (stereo not given) | – | > 100 µM | – | > 100 µM | – | > 100 µM | – | > 100 µM | – | > 100 µM | – | > 100 µM | – | > 100 µM | – | > 100 µM
10 | CSC(=Nc1ccccc1Cl)NC(=O)c1ccc(Br)cc1 | – | > 100 µM | – | > 100 µM | – | > 100 µM | – | – | – | > 100 µM | – | > 100 µM | – | > 100 µM | – | > 100 µM
11 | COc1cccc2c1C(=O)c1c(O)c3c(c(O)c1C2=O)C[C@@](O)(C(C)=O)C[C@@H]3OC1CC([N+]([O-])(Cc2ccccc2)Cc2ccccc2)C(O)C(C)O1 (stereo not given in full) | – | 2.73 µM | – | 3.07 µM | – | – | – | 2.71 µM | – | 15.8 µM | – | 3.37 µM | – | 2.48 µM | – | 2.83 µM
12 | Cc1cc(C)nc(NS(=O)(=O)c2ccc(Nc3c4ccccc4nc4c(C(=O)Nc5ccc(S(=O)(=O)Nc6cc(C)on6)cc5)ccc(Cl)c34)cc2)n1 | – | > 100 µM | – | 44 µM | – | > 100 µM | – | – | – | 48.9 µM | – | > 100 µM | – | 30.9 µM | – | 80.1 µM
13 | COC1=CC(=O)C(Br)=CC1=O | – | – | – | 33.5 µM | – | 33.8 µM | – | 34.5 µM | – | 32.9 µM | – | 35.8 µM | – | – | – | 32.1 µM
14 | C#CCN(N=O)C(=O)NCCCCC(NC(=O)OCc1ccccc1)C(=O)OCc1ccccc1 (stereo not given) | – | > 100 µM | – | 68 µM | – | 73.5 µM | – | > 100 µM | – | > 100 µM | – | > 100 µM | – | > 100 µM | – | > 100 µM
15 | COc1cc2c(c(O)c1C)C(=O)CC(c1ccccc1)O2 (stereo not given) | – | > 100 µM | – | > 10 µM | – | > 100 µM | – | 37.2 µM | – | – | – | 77.3 µM | – | > 100 µM | – | > 100 µM
16 | CCC[CH2][Sn]([CH2]CCC)([CH2]CCC)[O]C(=O)C(OC(C)=O)c1ccccc1 (stereo not given) | 0.143 µM | 0.274 µM | 0.138 µM | 0.267 µM | 0.138 µM | 0.368 µM | 0.147 µM | 0.28 µM | 0.176 µM | 0.322 µM | 0.244 µM | 0.888 µM | 0.14 µM | 0.27 µM | 0.126 µM | 0.255 µM
17 | Cc1ccc(NC(=O)C(=O)C(C(=O)c2ccc3ccccc3c2)C2OC(=O)c3ccccc32)c(C)c1 (stereo not given) | – | 60.4 µM | – | 36.9 µM | – | 35.7 µM | – | 24 µM | – | – | – | 42.9 µM | – | 17.2 µM | – | 17.3 µM
18 | O=c1nc(NC(c2ccccc2)(c2ccccc2)c2ccccc2)ccn1CCCl | – | 99 µM | – | – | – | 34.1 µM | – | – | – | 28.9 µM | – | 56.2 µM | – | 28.7 µM | – | –
19 | Cc1cc(Br)cc(C)c1NC(=O)C(=O)C(C(=O)c1ccncc1)C1OC(=O)c2ccccc21 (stereo not given) | – | > 100 µM | – | > 100 µM | – | > 100 µM | – | – | – | > 100 µM | – | > 100 µM | – | > 100 µM | – | > 100 µM
20 | NCCOCn1cc(Cc2cccc(OCc3ccccc3)c2)c(=O)[nH]c1=O | – | – | – | > 100 µM | – | – | – | > 100 µM | – | > 100 µM | – | > 100 µM | – | > 100 µM | – | > 100 µM
